Source: US20250195502A1, “APPLICATION OF TETRACYCLIC COMPOUND IN TREATMENT OF TUMORS” (SHANGHAI SHIJIANG BIOTECHNOLOGY CO., LTD, priority 2022, published 2025)
Where two headings read alike, the source gives them in different places.

Key:
Assay type in all cases: cell-based
[1] = tested on: NCI-H82 (human small cell lung cancer cell); assay: Cell viability assay (Promega CellTiter-Glo), inhibitory effect on NCI-H82; details: 72 h, 3 days of culture
Summary of the method: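 NCI-H82 cells grown in RPMI1640 with 10% FBS were exposed to serially diluted compound for 3 days. Viability was read as intracellular ATP by CellTiter-Glo luminescence, and the IC50 was taken as the concentration giving 50% inhibition.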

[2] = tested on: MDA-MB-453 (breast cancer cell); assay: Cell viability assay (Promega CellTiter-Glo), inhibitory effect on MDA-MB-453; details: Homo sapiens, 72 h, 3 days of culture
Summary of the method: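 Cells grown in Leibovitz's L-15 with 10% FBS were given serially diluted compound after passage and cultured 3 days. Viability was read as intracellular ATP by CellTiter-Glo luminescence, and IC50 was derived.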

[3] = tested on: sh-DNMT1 NCI-H82 cell (DNMT1 knocked down NCI-H82); assay: Cell viability assay (Promega CellTiter-Glo), inhibitory effect on sh-DNMT1 NCI-H82 cell; details: Homo sapiens, NCI-H82 with DNMT1 knocked down by shRNA
Summary of the method: (§1)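 NCI-H82 lines: NNMT overexpressed via viral vector, DNMT1 knocked down by viral shRNA, control given empty vector; expression confirmed by Western blot. Compound effect on viability read by CellTiter-Glo.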

[4] = tested on: NB-1 (brain neuroblastoma cell); assay: Cell viability assay (Promega CellTiter-Glo), inhibitory effect on NB-1; details: Homo sapiens, 72 h, 3 days of culture, read-out: inhibitory effect on brain cell line NB-1 (IC50)
Summary of the method: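 NB-1 cells grown in L-15 medium with 10% FBS were exposed to serially diluted compounds for 3 days after passage. Viability was read as intracellular ATP by CellTiter-Glo luminescence. IC50 was taken as the concentration giving 50% inhibition.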

[5] = tested on: Kelly (brain neuroblastoma cell); assay: Cell viability assay (Promega CellTiter-Glo), inhibitory effect on Kelly; details: Homo sapiens, 72 h, 3 days of culture, read-out: inhibitory effect on brain cell line Kelly (IC50)
Summary of the method: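 Kelly cells were cultured in RPMI1640 with 10% FBS and 2 mM glutamine, then treated with serially diluted compounds for 3 days. Viability was measured as intracellular ATP by CellTiter-Glo luminescence, and IC50 was derived from the dose-response.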

[6] = tested on: GB-1 (human brain glioblastoma cell); assay: Cell viability assay (Promega CellTiter-Glo), inhibitory effect on GB-1; details: 72 h, 3 days of culture
Summary of the method: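 GB-1 cells were grown in DMEM with 10% FBS and given serially diluted compound after passage. Viability was read after 3 days of culture as intracellular ATP by CellTiter-Glo luminescence, and IC50 was derived.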

[7] = tested on: 786-O (clear cell renal cell adenocarcinoma cell); assay: Cell viability assay (Promega CellTiter-Glo), inhibitory effect on 786-O; details: Homo sapiens, 786-0, 72 h, 3 days of culture
Summary of the method: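 786-O cells grown in RPMI1640 with 10% FBS and P/S, then exposed to serially diluted compounds after passage for 3 days. Viability read as intracellular ATP by CellTiter-Glo luminescence; IC50 derived.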

[8] = tested on: D341 Med (cerebellar medulloblastoma cell); assay: Cell viability assay (Promega CellTiter-Glo), inhibitory effect on D341 Med; details: Homo sapiens, 72 h, 3 days of culture, read-out: inhibitory effect on brain cell line D341 Med (IC50)
Summary of the method: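 D341 Med cells grown in EMEM with 20% FBS (+P/S) were treated with serially diluted compounds after passage. Viability after 3 days of culture was read as intracellular ATP by CellTiter-Glo luminescence, and IC50 was derived.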

[9] = tested on: Con-NCI-H82 cell (NCI-H82 transfected with empty virus vector); assay: Cell viability assay (Promega CellTiter-Glo), inhibitory effect on Con-NCI-H82 cell; details: Homo sapiens; NCI-H82 transfected with empty virus vector (control); CellTiter-Glo; read-out: inhibitory effect on Con-NCI-H82 (IC50)
Summary of the method: as §1

[10] = tested on: SF126 (human glioblastoma multiforme cell); assay: Cell viability assay (Promega CellTiter-Glo), inhibitory effect on SF126
Summary of the method: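 SF126 human glioblastoma cells grown in EMEM with 10% FBS were exposed to gradient-diluted compound for 3 days after passage. Viability was read as intracellular ATP by CellTiter-Glo luminescence, and IC50 taken as 50% inhibiting concentration.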

[11] = tested on: ov-NNMT NCI-H82 cell (NNMT protein-overexpressing NCI-H82); assay: Cell viability assay (Promega CellTiter-Glo), inhibitory effect on ov-NNMT NCI-H82 cell; details: Homo sapiens
Summary of the method: as §1

[12] = tested on: SW48 (human colon adenocarcinoma cell); assay: Cell viability assay (Promega CellTiter-Glo), inhibitory effect on SW48; details: 72 h, 3 days of culture
Summary of the method: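 Cells grown in L-15 medium with 10% FBS and treated with serially diluted compounds for 3 days. Viability taken from intracellular ATP by CellTiter-Glo luminescence; IC50 derived.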

[13] = tested on: CFPAC-1 (human pancreatic cancer cell); assay: Cell viability assay (Promega CellTiter-Glo), inhibitory effect on CFPAC-1; details: 72 h, 3 days of culture
Summary of the method: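 CFPAC-1 human pancreatic cancer cells in IMDM with 10% FBS exposed to serially diluted compounds for 3 days. Viability measured as intracellular ATP by CellTiter-Glo luminescence; IC50 derived.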

[14] = tested on: G-401 (human renal carcinoma Wilms cell); assay: Cell viability assay (Promega CellTiter-Glo), inhibitory effect on G-401; details: 72 h, 3 days of culture
Summary of the method: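 Cells grown in McCoy's 5a with 10% FBS were treated with gradient-diluted compounds after passage. Viability was read as intracellular ATP by CellTiter-Glo luminescence after 3 days of culture, and IC50 was determined from the dose series.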

[15] = Table 3, read-out: inhibitory effect on GB-1 (IC50)
[16] = Table 4, read-out: inhibitory effect on brain cell line GB-1 (IC50)
[17] = 72 h, SF-126, 3 days of culture, Table 3, read-out: inhibitory effect on SF-126 (IC50)
[18] = SF-126, 72 h, SF126, 3 days of culture, Table 4, read-out: inhibitory effect on brain cell line SF126 (IC50)

SMILES | IC50 [1] | IC50 [2] | IC50 [3] | IC50 [4] | IC50 [5] | IC50 [6, 15] | IC50 [6, 16] | IC50 [7] | IC50 [8] | IC50 [9] | IC50 [10, 17] | IC50 [10, 18] | IC50 [11] | IC50 [12] | IC50 [13] | IC50 [14]
COc1ccc2c(Cc3ccc(C(C)C)cc3)c3[n+](cc2c1OC)CCc1cc2c(cc1-3)OCO2 [compound AB31789] | 300 nM | 310 nM | 1050 nM | 210 nM | 460 nM | 3220 nM | 3220 nM | 2980 nM | 510 nM | 300 nM | 3770 nM | 3770 nM | 850 nM | 560 nM | 4510 nM | 260 nM
COc1ccc2cc3[n+](cc2c1OCC(=O)/C=C/c1ccc(C)cc1)CCc1cc2c(cc1-3)OCO2 [compound AB31790] | 430 nM | 910 nM | 1390 nM | 230 nM | 270 nM | 3730 nM | 3730 nM | 4750 nM | 260 nM | 430 nM | 3260 nM | 3260 nM | 1520 nM | 420 nM | 7820 nM | 820 nM
COc1ccc2c(Cc3ccc(C(F)(F)F)cc3)c3[n+](cc2c1OC)CCc1cc2c(cc1-3)OCO2 [compound AB31805] | 2110 nM | 4110 nM | 6040 nM | 1030 nM | 4820 nM | > 50000 nM | > 50000 nM | 25800 nM | 4800 nM | 2110 nM | > 50000 nM | > 50000 nM | 4820 nM | 1350 nM | > 50000 nM | 1840 nM
COc1ccc2cc3[n+](cc2c1OCCCCCCNC(=O)OC(C)(C)C)CCc1cc2c(cc1-3)OCO2 [compound AB31808] | 330 nM | 280 nM | 1040 nM | 60 nM | 1050 nM | 5560 nM | 5560 nM | 3900 nM | 430 nM | 330 nM | 4580 nM | 4580 nM | 860 nM | 390 nM | 7320 nM | 480 nM
COc1ccc(CCCc2c3[n+](cc4c(OC)c(OC)ccc24)CCc2cc4c(cc2-3)OCO4)cc1 [compound AB31809] | 440 nM | 870 nM | 1860 nM | 160 nM | 990 nM | 11800 nM | 11800 nM | 7880 nM | 1920 nM | 440 nM | 10100 nM | 10100 nM | 1380 nM | 560 nM | 15500 nM | 530 nM
